The values below are quoted from earlier work in patent US20020128208A1, “Nonpeptide agonists and antagonists of vasopressin receptors” (priority 2000, published 2002).

pKi: −log10 of the molar value.

Broadly, the pKi is the negative decadic logarithm of the Ki, by convention in mol/L.

The series addresses V2, V1a or both receptor. The note with it: prior-art antagonists disclosed by other companies; receptor subtype and species not stated.
`Cc1ccccc1C(=O)Nc1ccc(C(=O)N2CCCC(N(C)C)c3ccccc32)cc1` (stereo not shown) [OPC-31260]: the pKi was 7.66. On to `CC(C)(C)NC(=O)c1ccc(S(=O)(=O)N2C(=O)C3(CCC(OCCN4CCOCC4)CC3)c3ccccc32)cc1` (stereo not shown) [SR121463A], for which the negative-log Ki (pKi) was 8.85. For the compound `Cc1ccc(F)cc1C(=O)Nc1ccc(C(=O)N2Cc3cccn3Cc3ccccc32)c(Cl)c1` [VPA-985], the negative-log Ki (pKi) was 9.30. Consider `Cc1ccc(F)cc1C(=O)Nc1ccc(C(=O)N2Cc3cccn3Cc3ccccc32)c(Cl)c1` [YM35087], for which the negative logarithm of the Ki (pKi) is 8.74.
